The results in this text go back to PubChem BioAssay AID1259407 (Chemical Carcinogenesis Research Information System (CCRIS), 2018).

The series concerns CCRIS mutagenicity, Ames/micronucleus/aberration tests. Briefly: CCRIS mutagenicity studies.
The mark [1] stands for this setting: Test System: AMES SALMONELLA TYPHIMURIUM, Strain/Indicator: TA98, Metabolic Activation: NONE, Method: STANDARD PLATE.
The mark [2] stands for this setting: Test System: AMES SALMONELLA TYPHIMURIUM, Strain/Indicator: TA98, Metabolic Activation: RAT, LIVER, S-9, AROCLOR 1254, Method: STANDARD PLATE.
[3] abbreviates: Test System: AMES SALMONELLA TYPHIMURIUM, Strain/Indicator: TA100, Metabolic Activation: NONE, Method: STANDARD PLATE.
The mark [4] stands for this setting: Test System: AMES SALMONELLA TYPHIMURIUM, Strain/Indicator: TA100, Metabolic Activation: RAT, LIVER, S-9, AROCLOR 1254, Method: STANDARD PLATE.

Activity calls are given as the source filed them. The rule behind the calls is not given here.

Take `O=[N+]([O-])c1ccc2ccc3cc4c(c5ccc1c2c35)[C@H](O)[C@@H](O)C=C4`: the mutagenic call is “active; positive” (Test System: AMES SALMONELLA TYPHIMURIUM, Strain/Indicator: TA98(1,8-DNP6), Metabolic Activation: NONE); “active; positive” (Test System: AMES SALMONELLA TYPHIMURIUM, Strain/Indicator: TA98(1,8-DNP6), Metabolic Activation: RAT, LIVER, S-9, AROCLOR 1254); “active; positive” (Test System: AMES SALMONELLA TYPHIMURIUM, Strain/Indicator: TA98(NR), Metabolic Activation: NONE); “active; positive” (Test System: AMES SALMONELLA TYPHIMURIUM, Strain/Indicator: TA98(NR), Metabolic Activation: RAT, LIVER, S-9, AROCLOR 1254); “active; positive” (Test System: AMES SALMONELLA TYPHIMURIUM, Strain/Indicator: TA98, Metabolic Activation: NONE); “active; positive” (Test System: AMES SALMONELLA TYPHIMURIUM, Strain/Indicator: TA98, Metabolic Activation: RAT, LIVER, S-9, AROCLOR 1254). In addition, the mutagenic call is “inactive; negative” (Test System: CHINESE HAMSTER OVARY, Strain/Indicator: CHO-K1-BH4 (HGPRT), Metabolic Activation: NONE) and “inactive; negative” (Test System: CHINESE HAMSTER OVARY, Strain/Indicator: CHO-K1-BH4 (HGPRT), Metabolic Activation: RAT, LIVER, S-9, 3-METHYLCHOLANTHRENE).
On to `O=C1C(c2[nH]c3ccc(S(=O)(=O)O)cc3c2O)=Nc2ccc(S(=O)(=O)O)cc21`, for which the mutagenic call runs as follows: (Test System: AMES SALMONELLA TYPHIMURIUM, Strain/Indicator: TA98, Metabolic Activation: NONE, Method: PREINCUBATION) “inactive; negative”; (Test System: AMES SALMONELLA TYPHIMURIUM, Strain/Indicator: TA98, Metabolic Activation: S-9, Method: PREINCUBATION) “inactive; negative”; (Test System: AMES SALMONELLA TYPHIMURIUM, Strain/Indicator: TA100, Metabolic Activation: NONE, Method: PREINCUBATION) “inactive; negative”; (Test System: AMES SALMONELLA TYPHIMURIUM, Strain/Indicator: TA100, Metabolic Activation: S-9, Method: PREINCUBATION) “inactive; negative”; (Test System: Mouse lymphoma, Strain/Indicator: L5178Y (tk+/tk-), Metabolic Activation: None, Method: Suspension/plate) “inactive; negative”; (Test System: Mouse lymphoma, Strain/Indicator: L5178Y (tk+/tk-), Metabolic Activation: Rat, liver, S-9, Aroclor 1254, Method: Suspension/plate) “active; positive”.
For the compound `O=S(=O)(c1ccc(Cl)cc1)c1cc(Cl)c(Cl)cc1Cl`, the mutagenic call is, setting by setting: (End Point: In vivo chromosomal aberrations, Test System: Bone marrow cells, Species: Rat, Strain/Sex: Wistar/Female, Route: Oral) “inactive; negative”; (Test System: AMES SALMONELLA TYPHIMURIUM, Strain/Indicator: TA97A, Metabolic Activation: NONE, Method: STANDARD PLATE) “inactive; negative”; (Test System: AMES SALMONELLA TYPHIMURIUM, Strain/Indicator: TA97A, Metabolic Activation: RAT, LIVER, S-9, AROCLOR 1254, Method: STANDARD PLATE) “inactive; negative”; under setting [1], “inactive; negative”; under setting [2], “inactive; negative”; under setting [3], “inactive; negative”. The mutagenic call was “inactive; negative” under setting [4]; “inactive; negative” (Test System: AMES SALMONELLA TYPHIMURIUM, Strain/Indicator: TA102, Metabolic Activation: NONE, Method: STANDARD PLATE); “inactive; negative” (Test System: AMES SALMONELLA TYPHIMURIUM, Strain/Indicator: TA102, Metabolic Activation: RAT, LIVER, S-9, AROCLOR 1254, Method: STANDARD PLATE).
`c1ccc2c(c1)C1=c3c-2cc2cccc4ccc(c3c42)C2OC12` (stereo not given): the mutagenic call under setting [3] is “active; positive”.
Regarding `CC(C)CCON=O`, the mutagenic call reads like this: (End Point: IN VITRO CHROMOSOMAL ABERRATIONS, Test System: CHINESE HAMSTER OVARY CELLS, Metabolic Activation: NONE) “active; positive”; (End Point: IN VITRO CHROMOSOMAL ABERRATIONS, Test System: CHINESE HAMSTER OVARY CELLS, Metabolic Activation: RAT, LIVER, S-9, AROCLOR 1254) “inactive; negative”; (Test System: AMES SALMONELLA TYPHIMURIUM, Strain/Indicator: TA98, Metabolic Activation: HAMSTER, LIVER, S-9, AROCLOR 1254, Method: STANDARD PLATE) “inactive; negative”; under setting [1], “inactive; negative”; under setting [2], “inactive; negative”; (Test System: AMES SALMONELLA TYPHIMURIUM, Strain/Indicator: TA100, Metabolic Activation: HAMSTER, LIVER, S-9, AROCLOR 1254, Method: STANDARD PLATE) “inactive; negative”. The mutagenic call under setting [3] is “inactive; negative”; the mutagenic call under setting [4] is “inactive; negative”; the mutagenic call (Test System: AMES SALMONELLA TYPHIMURIUM, Strain/Indicator: TA1535, Metabolic Activation: HAMSTER, LIVER, S-9, AROCLOR 1254, Method: STANDARD PLATE) was “active; positive”; the mutagenic call (Test System: AMES SALMONELLA TYPHIMURIUM, Strain/Indicator: TA1535, Metabolic Activation: NONE, Method: STANDARD PLATE) was “active; positive”; the mutagenic call (Test System: AMES SALMONELLA TYPHIMURIUM, Strain/Indicator: TA1535, Metabolic Activation: RAT, LIVER, S-9, AROCLOR 1254, Method: STANDARD PLATE) was “active; positive”; the mutagenic call (Test System: AMES SALMONELLA TYPHIMURIUM, Strain/Indicator: TA1537, Metabolic Activation: HAMSTER, LIVER, S-9, AROCLOR 1254, Method: STANDARD PLATE) is “inactive; negative”. Also, the mutagenic call is “inactive; negative” (Test System: AMES SALMONELLA TYPHIMURIUM, Strain/Indicator: TA1537, Metabolic Activation: NONE, Method: STANDARD PLATE); “inactive; negative” (Test System: AMES SALMONELLA TYPHIMURIUM, Strain/Indicator: TA1537, Metabolic Activation: RAT, LIVER, S-9, AROCLOR 1254, Method: STANDARD PLATE); “active; positive” (Test System: MOUSE LYMPHOMA, Strain/Indicator: L5178Y (TK+/TK-), Metabolic Activation: NONE, Method: SUSPENSION/PLATE); “active; positive” (Test System: MOUSE LYMPHOMA, Strain/Indicator: L5178Y (TK+/TK-), Metabolic Activation: RAT, LIVER, S-9, AROCLOR 1254, Method: SUSPENSION/PLATE).
